Target: T1, Or69aB (Drosophila melanogaster, UniProt P82985)
T1 construct: gene Or69a; full ORF cloned from antennal cDNA into pUAS.g-HA.attB; expressed in Dhalo ab3A empty neurons (Or22a-Gal4), endogenous Orco; with Odorant receptor coreceptor
T1 sequence (P82985 1-393): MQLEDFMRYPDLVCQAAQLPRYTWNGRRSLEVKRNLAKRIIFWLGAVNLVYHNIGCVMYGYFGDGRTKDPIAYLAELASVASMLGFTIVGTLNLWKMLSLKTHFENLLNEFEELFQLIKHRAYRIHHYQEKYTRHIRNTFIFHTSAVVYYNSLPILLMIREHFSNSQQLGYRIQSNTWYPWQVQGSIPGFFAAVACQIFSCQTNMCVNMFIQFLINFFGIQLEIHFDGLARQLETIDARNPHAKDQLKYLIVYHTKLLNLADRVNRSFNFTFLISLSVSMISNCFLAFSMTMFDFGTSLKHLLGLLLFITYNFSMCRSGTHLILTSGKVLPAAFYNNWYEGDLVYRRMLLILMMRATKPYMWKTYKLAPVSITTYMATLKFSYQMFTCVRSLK
T1 sequence (Q9VNB5 1-486 partner): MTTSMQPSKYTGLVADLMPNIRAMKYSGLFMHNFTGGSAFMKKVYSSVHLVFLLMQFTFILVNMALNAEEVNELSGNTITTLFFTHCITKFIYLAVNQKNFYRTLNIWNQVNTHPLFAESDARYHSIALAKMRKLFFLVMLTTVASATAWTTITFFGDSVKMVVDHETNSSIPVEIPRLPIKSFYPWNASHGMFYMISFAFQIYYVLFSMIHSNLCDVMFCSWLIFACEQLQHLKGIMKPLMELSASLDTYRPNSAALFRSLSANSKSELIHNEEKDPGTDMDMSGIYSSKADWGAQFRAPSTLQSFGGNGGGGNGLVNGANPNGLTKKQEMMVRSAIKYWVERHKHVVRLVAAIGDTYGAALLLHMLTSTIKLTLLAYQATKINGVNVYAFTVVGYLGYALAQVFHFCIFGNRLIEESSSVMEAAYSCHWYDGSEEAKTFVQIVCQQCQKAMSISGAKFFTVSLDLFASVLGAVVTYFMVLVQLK
Assay: single sensillum recording, empty ab3A neuron
Format: cell-based
Conditions: 10 ug on filter paper, 0.5 s puff; activation (agonist)

Q: For `C=C(C)[C@H]1CC=C(C)C(=O)C1` [(S)-carvone], which “SSR response (spikes/s)” value is on record?
A: Its value is “Or69aB responds best to both isomers of carvone”.

Q: With `C=C(C)[C@@H]1CC=C(C)C(=O)C1` [compound 8, (R)-carvone] as the compound, how does the “SSR response (spikes/s)” value read?
A: The value was “(R)-carvone, which elicited the strongest Or69aB response”.

Q: How did the “SSR response (spikes/s)” value turn out when `CCCCCC/C=C\CCC=O` [compound 10, (Z)-4-undecenal] was run?
A: The value was “Or69aB responds best to both isomers of carvone, followed by Z4-11Al”.

Target: T2, Or69aA (Drosophila melanogaster, UniProt Q9VU27)
T2 construct: gene Or69a; full ORF cloned from antennal cDNA into pUAS.g-HA.attB; expressed in Dhalo ab3A empty neurons (Or22a-Gal4), endogenous Orco; with Odorant receptor coreceptor
T2 sequence (Q9VU27 1-393): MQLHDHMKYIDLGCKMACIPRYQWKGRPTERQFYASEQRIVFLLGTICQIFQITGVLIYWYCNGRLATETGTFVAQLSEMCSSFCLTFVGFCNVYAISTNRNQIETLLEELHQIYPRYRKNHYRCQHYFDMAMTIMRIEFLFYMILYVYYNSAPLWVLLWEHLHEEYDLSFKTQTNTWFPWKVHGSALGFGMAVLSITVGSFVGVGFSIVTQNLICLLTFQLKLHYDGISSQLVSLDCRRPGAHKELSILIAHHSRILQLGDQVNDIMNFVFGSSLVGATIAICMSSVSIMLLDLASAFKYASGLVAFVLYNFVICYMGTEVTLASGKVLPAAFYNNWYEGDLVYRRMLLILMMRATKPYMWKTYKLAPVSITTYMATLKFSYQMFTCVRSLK
T2 sequence (Q9VNB5 1-486 partner): T1 sequence (Q9VNB5 1-486 partner)
Assay: single sensillum recording, empty ab3A neuron
Format: cell-based
Conditions: 10 ug on filter paper, 0.5 s puff; activation (agonist)

Q: With `C=C[C@@](C)(O)CCC=C(C)C` [(S)-linalool] as the compound, how does the “SSR response (spikes/s)” value read?
A: Its value is “The most active ligands (S)-α-terpineol and (S)- and (R)-linalool”.

Q: For `CC1=CC[C@@H](C(C)(C)O)CC1` [compound 1, (S)-α-terpineol], which “SSR response (spikes/s)” value is on record?
A: Its value is “The most active ligands (S)-α-terpineol and (S)- and (R)-linalool”.

Q: Which “SSR response (spikes/s)” value does the source give for `C=C[C@](C)(O)CCC=C(C)C` [compound 4, (R)-linalool] here?
A: Its value is “The most active ligands (S)-α-terpineol and (S)- and (R)-linalool”.
